Experimental data: the NIST ThermoML archive (doi:10.1016/j.fluid.2005.09.025)
± gives the expanded uncertainty stated by the source.

Details: 298.15 K, 101.33 kPa, Liquid

mass density (Vibrating tube method) [kg/m3]	mass density [kg/m3]	Structure (SMILES)
786.55 ± 0.16		CO [methanol]
	764.96 ± 0.35	CC1CCCCC1 [methylcyclohexane]
648.45 ± 0.22		CCCC(C)C [2-methylpentane]
943.81 ± 0.09		CN(C)C=O [dimethylformamide]
